Results published in patent US10729694B2 (AI Therapeutics, Inc., priority 2015, dated 2020).

Legend:
[1] = test system: representative cancer cell line; assay: Vacuolization and disruption of intracellular trafficking in cells; details: live cells treated with 500 nM, 24 h
456 kinases = assay type: binding

Cc1cccc(/C=N/Nc2cc(N3CCOCC3)nc(OCCc3ccccn3)n2)c1 [apilimod]
vacuolization [1]: induces vacuolization
binding to panel of 456 kinases (456 kinases): did not bind to any of the 456 kinases tested
